{"source": "patent US20180116224A1", "about": "“PESTICIDAL COMPOSITIONS AND RELATED METHODS” (priority 2015, published 2018)", "test_system": "green peach aphid (Myzus persicae)", "assay": "pesticidal activity against green peach aphid on cabbage plants after soil treatment", "type": "in vivo", "conditions": "for number of live GPA aphids: 6.25 ppm loading, no soil conditioner", "procedure": "Each tested compositions was prepared by mixing a predetermined amount of the CLOSER® SC insecticide (a sulfoxaflor concentrate having a sulfoxaflor concentration of 240 g/L) with a predetermined amount of the organic soil conditioner ACCELL®-STR in an aqueous medium.\nThe compositions containing different amounts of sulfoxaflor and the organic soil conditioner ACCELL®-STR were prepared as shown in TABLE 1. For example, the “Sulfoxaflor at 6.25 ppm” composition contained about 0.003% weight of sulfoxaflor based on total weight of the composition (i.e., 6.25 ppm of sulfoxaflor per one gram of final soil mixture). “Sulfoxaflor at 6.25 ppm+ACCELL®-STR at 384 ppm” composition contained about 0.003% weight of sulfoxaflor based on total weight of the composition (i.e., 6.25 ppm of sulfoxaflor per one gram of final soil mixture), and about 0.225% weight of the organic soil conditioner ACCELL®-STR based on total weight of the composition (i.e., 384 ppm per one gram of the final soil mixture; 1500 ppm per one gram of the total soil liquid).\nThe imidacloprid pesticide PROVADO® 1.6 from Bayer CropScience LP (North Carolina, USA) was used as a standard commercial pesticidal composition for aphid control. The imidacloprid pesticide PROVADO® 1.6 was tested at the same loading as that used for the sulfoxaflor, which was 6.25 ppm per gram of final soil mixture.\nIn this EXAMPLE 4, water was tested as a control composition. Furthermore, an aqueous solution of the organic soil conditioner ACCELL®-STR was tested.\nCabbage plants (Brassica oleracea capitata L) of uniform size (two new leaf stage) infested with green peach aphids (Myzus persicae) (“GPA”) were used as the study models according to the following procedure:\nCabbage seeds were planted in 3-inch pots containing a peat-based METRO MIX 360® potting soil available from SUN GRO® Horticulture Canada, Ltd. The seeds were propagated in greenhouse zone G4, located in the R&D building of Dow AgroSciences (Indianapolis, Ind., USA), at 26° C. with a relative humidity of 53%. Natural light was supplemented with 1,000-watt metal halide overhead lamps with an average illumination of about 500 μE/m^2.s photosynthetic active radiation for 16 consecutive hours each day.\nEach of the 1-ounce clear cups was filled with about 30 grams of the inoculated Midwest field soil having the components as shown in TABLE 2. […] The soil moisture of the Midwest field soil was about 15% as measured by Mettler LJ16 Moisture Analyzer (15 minutes and 100° C.).\nThe Midwest field soil in each selected 1-ounce cup was treated with about 9 mL of the selected composition using a 10 mL pipette. […]\nThe pesticidal activity against GPA was determined three days after infestation, by counting the number of live GPA aphids present on each cabbage plant. […]", "key": {"[1]": {"conditions": "dose rate 6.25 ppm sulfoxaflor alone"}}}
{"smiles": "C[C@@H](c1ccc(C(F)(F)F)nc1)[S@](C)(=O)=NC#N", "note": "(racemic) [Sulfoxaflor, [methyl(oxo){1-[6-(trifluoromethyl)-3-pyridyl]ethyl}-λ^6-sulfanylidene]cyanamide]", "values": [{"measurement": "number of live GPA aphids", "setting": "DAT of 21 days, counted three days after infestation", "result": "about 10"}, {"measurement": "number of live GPA aphids", "setting": "DAT of 28 days", "result": "about 90"}, {"measurement": "% Control at DAT of 21 days", "setting": "[1]", "result": 91.19, "unit": "%"}, {"measurement": "% Control at DAT of 28 days", "setting": "[1]", "result": 0, "unit": "%"}]}
